Reference: PubChem BioAssay AID449764 (Southern Research Specialized Biocontainment Screening …, 2010)

Tested on: Mycobacterium tuberculosis H37Rv growth inhibition, no glycerol
Test: Confirmatory growth inhibition assay, Mycobacterium tuberculosis H37Rv, absence of glycerol (AID 449764);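 note: growth read after 7 days of incubation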
Details: for IC90: measured here: IC90 growth inhibition

Row | SMILES | IC50 [µM] | IC90 [µM]
1 | COCCCN=C1NN=C(c2cc(C)n(Cc3ccco3)c2C)CS1 | 70.7 | 92.2
2 | CCCCCc1ccc(-c2cn(Cc3cccc(OC)c3)nn2)cc1 | 38.9 | > 100
3 | CCN1CSC(=S)N(Cc2ccccc2)C1 | 32.5 | 60.7
4 | CCc1cccc2c(C(=O)CCl)c[nH]c12 | 4.05 | 7.83
5 | CNc1ccccc1C(=O)OC(C)C(=O)Nc1ccc(Cl)cn1 (configuration not stated) | 35.3 | 65.3
6 | COc1ccc(/C=N/Nc2cc(N3CCCC3)nc(N3CCCC3)n2)cc1 | 18.6 | 24
7 | COc1cc(/C=N/n2c(-c3ccc4c(c3)NC(=O)CO4)csc2=Nc2cccc(C)c2)ccc1O | 37.8 | > 100
8 | CCCSc1nnc(Sc2nnnn2-c2ccccc2)s1 | 22.5 | 38.8
9 | CCc1ccc(C2c3[nH]c4ccccc4c3CCN2C(=O)c2ccc(=O)n(C)n2)cc1 (configuration not stated) | 51.3 | 93.4
10 | CCCc1cc(=O)n2[nH]c(C)c(-c3ccc(Cl)cc3)c2n1 | 11.5 | 13.2
11 | CCCOc1cccc(C(=O)NC(=S)Nc2ccc(N3CCN(C)CC3)cc2)c1 | – | > 100
12 | O=C1C(Cl)=C(N2CCOCC2)C(=O)N1c1cccc(Cl)c1 | 6.48 | 12.6
13 | Cc1cc(C=C2C(=O)NC(=S)NC2=O)c(C)n1C1CCCC1 | 34.9 | 73.9
14 | O=C(c1ccccc1)c1ccc(OCCOCCN2CCN(Cc3ccccc3)CC2)cc1 | 24 | 27.5
15 | CC(=O)c1cccc(NC(=O)C2C3C=CC(C3=C(c3ccccc3)c3ccccc3)C2C(=O)O)c1 (configuration not stated) | – | > 50
16 | S=c1nc2ccccc2c2nc(-c3ccccc3)[nH]n12 | 17.6 | 24.5
17 | COc1cc2nc(Nc3ccc(C)c(Cl)c3)nc(N)c2cc1OC | 58.7 | 66.8
18 | O=C(OCn1nnc2ccccc2c1=O)C1CCCCC1 | 5.88 | 6.69
19 | c1ccc(-c2nc3nonc3nc2-c2ccccc2)cc1 | 28.9 | 39.4
20 | CCCCCCC#Cc1ccc2c(c1)COc1c3ccccc3nn1-2 | 75.5 | > 100
21 | Cc1cc(=O)n2cccc(O)c2n1 | 11.8 | 21.5
22 | C=CCNCC(=O)N1N=C(c2ccc3ccccc3c2)CC1c1ccc(OC)cc1 (configuration not stated) | 18.4 | 23.3

Row | SMILES | IC50 [µM] | IC90 [µM]
23 | Cc1ccn2nc(S(=O)(=O)Nc3c(F)cccc3F)nc2n1 | 9.62 | 11.5
24 | Nc1ccc(N=Nc2ccccc2)c2cccnc12 | 34.7 | 64.2
25 | O=C(OCc1ccccc1)/C(=C(\O)c1ccccc1Br)c1ccc(-c2ccccc2)cn1 | 35.4 | 49.3
26 | COc1ccccc1C1CCN(Cc2ccc3ccccc3c2)CC1 | 21.8 | 24.6
27 | CN(C(=O)COC(=O)c1ccc([N+](=O)[O-])cc1Cl)C1CCCCC1 | 19.2 | > 100
28 | CCCN(CCC)CCNC(=O)c1cc2c(-c3ccc(Cl)cc3)nn(C)c2s1 | 23.9 | 27.1
29 | Cc1nc(-c2ccccc2)sc1C(=O)/C=C/c1ccccc1 | 12.4 | 13.6
30 | O=C(COc1ccccc1)NNc1nc2ccccc2s1 | 92.8 | > 100
31 | c1ccc(CCN2CCN(c3ncnc4c3cnn4-c3ccccc3)CC2)cc1 | 47.7 | 91.1
32 | CC(C)Oc1ccc(C(=O)N/N=C/c2ccc(-c3ccc(S(=O)(=O)Nc4ncccn4)cc3)o2)cc1 | 55.8 | 89.7
33 | Cc1nc2sccn2c(=O)c1CCN1CCC(=C(c2ccccc2)c2ccc(F)cc2)CC1 | 35.8 | 51.2
34 | CCN(CC)c1ccc2c(Cl)c(Br)c(=O)oc2c1 | 22.6 | 61.6
35 | Cn1ccnc1C(=O)C1CCCN(Cc2cn[nH]c2-c2ccc(-c3ccccc3)cc2)C1 (configuration not stated) | 77.1 | 99.4
36 | COc1ccccc1-c1cc(C(=O)NC2CCN(C)CC2)c2ccc(Cl)c(C)c2n1 | 83.5 | > 100
37 | CCC[C@@H]1C[C@@H](C(=O)NC(C(C)Cl)[C@H]2O[C@H](SC)[C@H](O)[C@@H](O)[C@H]2O)N(C)C1 (some centres not stated) | 3.91 | 11.5
38 | CN(CC(=O)Nc1ccccc1Br)C(=O)c1cccnc1Nc1cccc(C(F)(F)F)c1 | 35 | 48.7
39 | CCOc1ccc(C(=O)CCN2CCCCCC2)cc1 | 23.7 | 26.2
40 | CCn1c(=O)c(CCC(=O)N2CCN(c3ccccn3)CC2)c(C)c2c(C)nn(-c3cccc(C)c3)c21 | 21.8 | > 100
41 | COc1ccc(NC(C)C(=O)Nc2ccc(C(C)(C)C)cc2)cc1Cl (configuration not stated) | 94.1 | > 100
42 | COc1ccc(-c2cn3cc([N+](=O)[O-])ccc3n2)cc1OC | 46.9 | > 50
43 | Cc1ccc2nc3c(cc(C(=O)NCc4ccco4)c(=N)n3Cc3ccco3)c(=O)n2c1 | 53.6 | > 100
44 | CCOC(=O)N1CCC(N2Cc3cccc(C(=O)Nc4ccc(N(CC)CC)cc4C)c3C2=O)CC1 | 35.3 | > 100

Row | SMILES | IC50 [µM] | IC90 [µM]
45 | COc1ccc(C(=O)OCCNC(=O)c2c(Cl)nc3ccccn23)cc1 | 4.19 | 10.6
46 | Cc1c(C(=O)N(C)C)sc2nc(-c3ccccn3)[nH]c(=O)c12 | 19.5 | 31.4
47 | N#C/C(=C/c1ccc(Sc2nc3ccccc3[nH]2)o1)c1cccc(Br)c1 | 57.9 | > 100
48 | COc1ccc(NC(=O)CN(C)CC(=O)Nc2sc3c(c2C(N)=O)CCC3)cc1 | 82.4 | > 100
49 | Cn1nnnc1Sc1ncnc2scc(-c3cc4ccccc4o3)c12 | 5.11 | 12.1
50 | Nc1nc2ccccc2n1CCOc1ccccc1Cl | 20.3 | 23.1
51 | Clc1ccc(CNc2nc(CN3CCOCC3)nc3scc(-c4ccccc4)c23)cc1 | 33.5 | 42.1
52 | Cc1ccc(NC(=O)COC(=O)C(NS(=O)(=O)c2ccc(Cl)cc2)C(C)O)cc1C (configuration not stated) | 16.1 | 36.2
53 | CCN(CC)C(=O)c1cc([N+](=O)[O-])cc2c1-c1ccc([N+](=O)[O-])cc1C2=C(C#N)C#N | 21.7 | 24.3
54 | Cc1ccc(/C(N)=N/OC(=O)N2c3ccccc3Sc3ccccc32)cc1 | 92.7 | > 100
55 | COc1ccc2c(c1)[C@@H]1[C@H](CO2)[C@H](c2ccccc2)[C@]2(C)C(=O)Nc3ccc(C)cc3C(=O)N12 | 71.1 | > 100
56 | CC(C)(C)c1csc(NC(=O)c2c(F)c(F)c(F)c(F)c2F)n1 | 21 | 29.4
57 | c1ccc2c(c1)CCN(c1nc3cc4c(cc3s1)OCCO4)C2 | 35 | 55
58 | CC(C)(O)C#Cc1ccc(C(=O)Nc2ccc3c(c2)OCO3)s1 | 42.9 | > 100
59 | CCN1/C(=C/c2ccc3cc(C)ccc3[n+]2CC)Sc2ccccc21 | 2.73 | 3.07
60 | CCc1cc(C(=O)Nc2nc(-c3ccccn3)cs2)sc1C | 4.53 | 8.86
61 | Cc1cc2nc(C3CCN(CC4COc5ccccc5O4)CC3)[nH]c2cc1C (configuration not stated) | 17.8 | 28.7
62 | COCc1cc(=O)[nH]c(Nc2nc3ccccc3o2)n1 | 26.4 | 48
63 | CC(C)(C)Nc1nc(NC(C)(C)C)nc(-n2ccnc2)n1 | 59.9 | 98.5
64 | CC1=NNC(=O)/C1=C\c1cn(-c2ccccc2)nc1-c1ccc(Cl)cc1 | 45.2 | 48.8
65 | COc1ccc(NC(=O)CSC2=C(C#N)C(c3ccco3)C(C(=O)Nc3nc4ccccc4s3)=C(C)N2)cc1 (configuration not stated) | 7.09 | 16.4
66 | Cc1ccc(-n2cc(CNCCn3nc(C)cc3C)c(-c3ccc(F)cc3)n2)cc1 | 8.2 | 13.5

Row | SMILES | IC50 [µM] | IC90 [µM]
67 | Cc1nc2ccccc2c2nc3ccccc3n12 | 30.6 | 48.4
68 | O=C(O)c1ccc(N2C(=O)/C(=C/c3ccc(-c4ccc([N+](=O)[O-])cc4)o3)C=C2c2ccccc2)cc1 | 49.8 | > 100
69 | O=C(Nc1cc(C(F)(F)F)ccc1-n1cncn1)c1ccc([N+](=O)[O-])o1 | 37 | 54.2
70 | O=C(CCl)Nc1cn(-c2ccccc2)nc1-c1ccccc1 | 0.5 | 1.23
71 | CCCCN1C(=N)N([C@@H](CCC)CN2CCC[C@H]2CN2C(N)=NC[C@@H]2Cc2ccccc2)C[C@H]1Cc1ccccc1 | 23.9 | 27.6
72 | Cc1ccccc1-n1sc2cc(F)ccc2c1=O | 22 | 24.6
73 | O=C(OCC(=O)c1cccs1)C1=COCCO1 | 29.9 | > 100
74 | CCOC(=O)c1[nH]c(CN2CCN(c3ccc(OC)cc3)CC2)c(C(=O)OCC)c1C | 34.1 | 48.6
75 | Cc1cccc(-c2oc3ccc(-c4ccc5c(c4)OCO5)cc3c2C#Cc2cncn2C)c1 | 2.86 | 3.23
76 | CC1CCN(C(=O)C2CCN(c3nnc(-n4cccc4)s3)CC2)CC1 | 3.51 | 6.13
77 | CC1CN(c2ccc([N+](=O)[O-])c(NCCOc3ccc(Cl)cc3)c2)CC(C)N1 (configuration not stated) | 15.5 | 31.2
78 | CCOC(=O)c1ccc(NC(=O)CCc2nc(-c3ccc(Cl)cc3)no2)cc1 | 48.1 | > 100
79 | Cc1ccc(-n2[nH]c(C)c(C=Nc3ccc(S(=O)(=O)Nc4nccs4)cc3)c2=O)c(C)c1 | 6.3 | 12
80 | CCN(CC)CCOC(=O)c1ccc(N/C=C(/C#N)c2nc(-c3ccc4c(c3)OCO4)cs2)cc1 | 62.2 | > 100
81 | Cc1cccc(/C=C2/S/C(=N/N=C3\CC4CCC3(C)C4(C)C)NC2=O)c1 (configuration not stated) | 25.6 | > 100
82 | CC(C)Nc1nc(NC(C)C)nc(N(C)N)n1 | 32.2 | 47.9
83 | Cc1cnc(NC(=O)NCC2CCCC(CNC(=O)Nc3ncc(C)s3)C2)s1 (configuration not stated) | 36.2 | > 50
84 | CCc1ccc(N=C2NC(=O)/C(=C/c3cc(OC)c(O)c(OC)c3)S2)cc1 | 41.1 | > 100
85 | COc1cccc(-n2nnc3c(=O)n(CC(=O)N4CCC(Cc5ccccc5)CC4)cnc32)c1 | 51.2 | > 100
86 | N/C(=N\OC(=O)Nc1ccc(Cl)c(Cl)c1)c1ncc(C(F)(F)F)cc1Cl | 28.9 | 35.7
87 | O=C(NCCC1=CCCCC1)NC12CC3CC(CC(C3)C1)C2 | < 0.2 | 1.58
